# Earlier results, collected in article PMC11340619 (Redox Biology, 2024).
# Tested on: hepatic I/R injury
# Settings: in mice; NRF2 agonist treatment; ref [14],[15]
smiles,measurement,value
C[S+]([O-])CCCCN=C=S (centres unmarked) [sulforaphane],hepatic I/R injury,alleviate hepatic I/R injury in mice
C=C(CC(=O)O)C(=O)O [itaconate],hepatic I/R injury,alleviate hepatic I/R injury in mice
